# Source: US10670605B2, “Cysteine reactive probes and uses thereof” (The Scripps Research Institute, priority 2015, dated 2020)
# Columns and labels:
# Experiment in all cases: Competitive isoTOP-ABPP in situ (fragment-treated cells)
# Format in all cases: cell-based
# [1] = target: cysteines in MDA-MB-231 and Ramos cells (Homo sapiens, UniProt Q9Y5S2)
# [2] = target: cysteines in MDA-MB-231 and Ramos cells (Homo sapiens, UniProt Q9ULA0); details: 200 μM, insitu
# [3] = target: T1, cysteines in MDA-MB-231 and Ramos cells (Homo sapiens, UniProt Q9GZR2); details: 200 μM, insitu
# T1 sequence (Q9GZR2 1-422): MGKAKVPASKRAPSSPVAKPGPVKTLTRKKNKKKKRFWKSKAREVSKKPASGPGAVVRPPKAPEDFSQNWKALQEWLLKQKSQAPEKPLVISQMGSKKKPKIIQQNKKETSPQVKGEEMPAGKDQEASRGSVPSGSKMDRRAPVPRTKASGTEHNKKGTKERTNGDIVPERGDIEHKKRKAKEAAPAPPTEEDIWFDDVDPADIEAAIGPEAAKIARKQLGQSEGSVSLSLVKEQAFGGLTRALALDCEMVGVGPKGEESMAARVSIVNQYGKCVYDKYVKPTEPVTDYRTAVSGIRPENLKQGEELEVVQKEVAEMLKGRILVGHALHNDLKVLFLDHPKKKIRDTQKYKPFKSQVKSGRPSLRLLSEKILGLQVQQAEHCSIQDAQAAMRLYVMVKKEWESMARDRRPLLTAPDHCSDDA
# [4] = target: T2, cysteines in MDA-MB-231 and Ramos cells (Homo sapiens, UniProt O94953); details: 200 μM, insitu, ramos
# T2 sequence (O94953 1-1096): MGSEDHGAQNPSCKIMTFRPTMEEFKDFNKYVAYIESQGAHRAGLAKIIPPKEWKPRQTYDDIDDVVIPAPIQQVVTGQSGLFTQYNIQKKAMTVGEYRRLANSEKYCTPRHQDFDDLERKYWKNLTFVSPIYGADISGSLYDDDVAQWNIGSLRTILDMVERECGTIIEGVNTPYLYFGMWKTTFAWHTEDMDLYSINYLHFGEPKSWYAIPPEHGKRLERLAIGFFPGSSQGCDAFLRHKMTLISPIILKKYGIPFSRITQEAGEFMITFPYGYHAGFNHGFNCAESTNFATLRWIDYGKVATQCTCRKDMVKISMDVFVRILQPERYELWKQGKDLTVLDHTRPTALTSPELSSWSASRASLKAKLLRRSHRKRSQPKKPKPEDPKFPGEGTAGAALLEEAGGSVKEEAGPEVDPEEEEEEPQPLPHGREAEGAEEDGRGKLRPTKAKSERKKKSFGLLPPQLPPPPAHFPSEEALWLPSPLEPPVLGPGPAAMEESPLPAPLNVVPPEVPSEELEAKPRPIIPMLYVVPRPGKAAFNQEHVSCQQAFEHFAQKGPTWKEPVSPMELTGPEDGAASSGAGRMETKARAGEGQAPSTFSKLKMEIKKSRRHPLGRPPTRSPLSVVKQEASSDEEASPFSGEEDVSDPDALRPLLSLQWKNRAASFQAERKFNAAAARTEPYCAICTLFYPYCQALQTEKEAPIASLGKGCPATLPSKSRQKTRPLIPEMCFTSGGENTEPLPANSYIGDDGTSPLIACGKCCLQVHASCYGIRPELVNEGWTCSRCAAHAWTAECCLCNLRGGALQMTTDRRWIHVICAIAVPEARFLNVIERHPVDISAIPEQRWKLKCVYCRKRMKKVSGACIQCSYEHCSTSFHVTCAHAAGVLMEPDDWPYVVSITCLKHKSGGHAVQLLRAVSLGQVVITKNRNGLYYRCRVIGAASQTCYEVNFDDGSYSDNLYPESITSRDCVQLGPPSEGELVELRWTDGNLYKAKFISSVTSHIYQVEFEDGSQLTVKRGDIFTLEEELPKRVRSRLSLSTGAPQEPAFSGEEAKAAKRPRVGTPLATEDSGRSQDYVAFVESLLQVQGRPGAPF
# [5] = target: T3, cysteines in MDA-MB-231 and Ramos cells (Homo sapiens, UniProt Q16667); details: 200 μM, insitu
# T3 sequence (Q16667 1-212): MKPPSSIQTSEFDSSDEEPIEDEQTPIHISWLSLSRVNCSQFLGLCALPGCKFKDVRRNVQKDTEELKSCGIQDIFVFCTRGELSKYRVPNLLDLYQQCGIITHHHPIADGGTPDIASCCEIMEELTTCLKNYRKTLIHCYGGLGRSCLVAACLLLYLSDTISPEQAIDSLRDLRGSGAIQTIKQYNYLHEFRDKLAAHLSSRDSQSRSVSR
# Sequence of cysteines in MDA-MB-231 and Ramos cells (Homo sapiens, UniProt Q9Y5S2) (Q9Y5S2 whole entry): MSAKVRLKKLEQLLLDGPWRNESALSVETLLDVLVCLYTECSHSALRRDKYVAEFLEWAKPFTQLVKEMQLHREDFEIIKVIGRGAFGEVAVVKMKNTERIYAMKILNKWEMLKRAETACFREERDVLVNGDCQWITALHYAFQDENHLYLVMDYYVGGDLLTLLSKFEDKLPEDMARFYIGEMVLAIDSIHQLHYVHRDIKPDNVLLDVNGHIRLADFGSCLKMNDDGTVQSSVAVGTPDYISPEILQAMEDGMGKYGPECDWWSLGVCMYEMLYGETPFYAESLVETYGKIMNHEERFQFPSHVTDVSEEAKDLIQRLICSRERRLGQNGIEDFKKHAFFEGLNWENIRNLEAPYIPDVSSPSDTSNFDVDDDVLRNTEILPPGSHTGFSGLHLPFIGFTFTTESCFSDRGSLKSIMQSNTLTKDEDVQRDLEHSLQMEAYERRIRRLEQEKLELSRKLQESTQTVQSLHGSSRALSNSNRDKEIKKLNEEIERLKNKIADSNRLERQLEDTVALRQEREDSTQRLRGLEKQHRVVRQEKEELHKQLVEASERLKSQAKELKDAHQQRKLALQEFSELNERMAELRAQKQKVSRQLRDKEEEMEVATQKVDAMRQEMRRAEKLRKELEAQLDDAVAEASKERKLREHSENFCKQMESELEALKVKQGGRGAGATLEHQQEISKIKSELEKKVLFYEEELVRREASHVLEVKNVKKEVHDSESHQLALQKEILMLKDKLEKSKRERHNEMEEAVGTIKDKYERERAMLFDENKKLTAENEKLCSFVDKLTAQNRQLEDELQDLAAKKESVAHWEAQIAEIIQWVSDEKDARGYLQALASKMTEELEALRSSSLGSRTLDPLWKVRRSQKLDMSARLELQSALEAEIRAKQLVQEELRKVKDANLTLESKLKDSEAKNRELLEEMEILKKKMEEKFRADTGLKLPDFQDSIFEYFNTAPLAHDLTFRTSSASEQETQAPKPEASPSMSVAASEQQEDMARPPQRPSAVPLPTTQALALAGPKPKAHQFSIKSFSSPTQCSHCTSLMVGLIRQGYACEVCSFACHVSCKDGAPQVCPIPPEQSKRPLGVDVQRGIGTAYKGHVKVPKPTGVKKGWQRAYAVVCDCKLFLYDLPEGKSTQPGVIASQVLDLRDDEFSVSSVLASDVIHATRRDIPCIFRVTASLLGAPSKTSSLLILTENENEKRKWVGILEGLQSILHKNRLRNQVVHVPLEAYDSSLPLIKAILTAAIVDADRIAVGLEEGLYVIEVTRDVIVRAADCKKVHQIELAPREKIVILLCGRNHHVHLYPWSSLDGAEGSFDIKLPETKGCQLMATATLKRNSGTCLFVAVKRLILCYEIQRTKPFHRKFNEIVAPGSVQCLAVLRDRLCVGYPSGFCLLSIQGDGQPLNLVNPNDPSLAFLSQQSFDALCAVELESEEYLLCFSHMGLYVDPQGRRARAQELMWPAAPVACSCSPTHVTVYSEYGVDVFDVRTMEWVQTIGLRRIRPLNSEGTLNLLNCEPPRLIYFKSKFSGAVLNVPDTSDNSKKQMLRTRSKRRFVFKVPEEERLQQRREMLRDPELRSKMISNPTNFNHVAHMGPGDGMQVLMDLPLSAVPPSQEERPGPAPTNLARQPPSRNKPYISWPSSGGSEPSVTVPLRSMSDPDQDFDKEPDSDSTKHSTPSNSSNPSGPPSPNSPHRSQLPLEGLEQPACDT
smiles,measurement,setting,value
Cc1ccc(C=C(C#N)C(=O)NCCN2CCOCC2)cc1 [compound 41],isoTOP-ABPP ratio Q9Y5S2_C1517,"[1]; 200 μM, insitu, 231",0.4
same,isoTOP-ABPP ratio Q9ULA0_C144,[2]; 231,0.8
O=C(CCl)NC(=O)NC12CC3CC(CC(C3)C1)C2 [compound 12],"isoTOP-ABPP ratio, cysteine Q9GZR2_C382",[3]; 231,20.0
O=C(CCl)NCCc1c[nH]c2ccccc12 [compound 13],"isoTOP-ABPP ratio, cysteine O94953_C694",[4],1.5
same,"isoTOP-ABPP ratio, cysteine Q16667_C39",[5]; ramos,1.2
same,"isoTOP-ABPP ratio, cysteine Q9GZR2_C382",[3]; ramos,0.9
O=C(CCl)N1CCC(Cc2ccccc2)CC1 [compound 9],isoTOP-ABPP reactivity Q9ULA0_C144 DNPEP,[2]; 231,2.1
COc1ccc(C2CC(c3cccs3)=NN2C(=O)CCl)cc1 (stereo not shown) [compound 4],isoTOP-ABPP reactivity Q9Y5S2_C1517 CDC42BPB,[1]; 100 μM in situ 231,20.0
O=C(CCl)NC12CC3CC(CC(C3)C1)C2 [compound 21],"isoTOP-ABPP ratio, cysteine Q16667_C39",[5]; 231,0.8
Cn1cc(S(=O)(=O)N2CCOCC2)cc1C(=O)NC(=O)CCl [compound 11],"isoTOP-ABPP ratio, cysteine Q9Y5S2_C1517",[1]; 100 μM in situ 231,1.2
CC1CCc2ccccc2N1C(=O)CCl (stereo not shown) [compound 45],isoTOP-ABPP ratio Q9Y5S2_C1517,"[1]; 200 μM, insitu, 231",20.0
same,isoTOP-ABPP ratio Q9GZR2_C382,[3]; 231,20.0
COc1ccc2c(c1)CCCN2C(=O)CCl [compound 2],isoTOP-ABPP reactivity Q9Y5S2_C1517 CDC42BPB,"[1]; 200 μM, insitu, 231",20.0
O=C(CCl)N1CCN(S(=O)(=O)c2ccccc2F)CC1 [compound 10],"isoTOP-ABPP ratio, cysteine Q9ULA0_C144",[2]; 231,5.2
same,"isoTOP-ABPP ratio, cysteine O94953_C694",[4],3.9
same,"isoTOP-ABPP ratio, cysteine Q16667_C39",[5]; 231,2.3
O=C(CCl)N1CCN(CC(=O)N2CCOCC2)CC1 [compound 29],isoTOP-ABPP ratio Q9ULA0_C144,[2]; ramos,1.3
same,"isoTOP-ABPP ratio, O94953_C694",[4],1.1
same,isoTOP-ABPP ratio Q16667_C39,[5]; ramos,1.7
